This assay addresses T1, F508delCFTR cell surface expression in CFBE41o-F508delCFTR-HRP cells (Homo sapiens, UniProt P13569, DEL508-508).
T1 construct: fused on or other part: Horseradish peroxidase (HRP) reporter inserted in the fourth exofacial (extracellular) loop of CFTR; expression is doxycycline-inducible
Nature of the assay: Cell Surface Expression-Horse Radish Peroxidase (CSE-HRP) Assay. The class given is cell-based. The conditions noted are these: for EC50: CFBE41o-F508delCFTR-HRP cells, 18-24 hours at 33° C., 8-point curve, highest concentration 20 μM; for Maximum % activity (%): maximum at any tested concentration, normalized to on-plate positive control (3 μM). The method in brief: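 CFBE41o- cells with HRP-tagged F508delCFTR, expression induced by 0.5 μg/mL doxycycline for 72 h at 37 °C, then compound for 18-24 h at 33 °C (8-point, 3-fold, top 20 μM). Surface HRP measured by luminol luminescence; % activity normalised to 3 μM positive-control corrector; EC50 from variable-slope sigmoidal fit, three replicate plates.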

T1 sequence (P13569 with tags, fused parts or gaps DEL508-508 limits assumed): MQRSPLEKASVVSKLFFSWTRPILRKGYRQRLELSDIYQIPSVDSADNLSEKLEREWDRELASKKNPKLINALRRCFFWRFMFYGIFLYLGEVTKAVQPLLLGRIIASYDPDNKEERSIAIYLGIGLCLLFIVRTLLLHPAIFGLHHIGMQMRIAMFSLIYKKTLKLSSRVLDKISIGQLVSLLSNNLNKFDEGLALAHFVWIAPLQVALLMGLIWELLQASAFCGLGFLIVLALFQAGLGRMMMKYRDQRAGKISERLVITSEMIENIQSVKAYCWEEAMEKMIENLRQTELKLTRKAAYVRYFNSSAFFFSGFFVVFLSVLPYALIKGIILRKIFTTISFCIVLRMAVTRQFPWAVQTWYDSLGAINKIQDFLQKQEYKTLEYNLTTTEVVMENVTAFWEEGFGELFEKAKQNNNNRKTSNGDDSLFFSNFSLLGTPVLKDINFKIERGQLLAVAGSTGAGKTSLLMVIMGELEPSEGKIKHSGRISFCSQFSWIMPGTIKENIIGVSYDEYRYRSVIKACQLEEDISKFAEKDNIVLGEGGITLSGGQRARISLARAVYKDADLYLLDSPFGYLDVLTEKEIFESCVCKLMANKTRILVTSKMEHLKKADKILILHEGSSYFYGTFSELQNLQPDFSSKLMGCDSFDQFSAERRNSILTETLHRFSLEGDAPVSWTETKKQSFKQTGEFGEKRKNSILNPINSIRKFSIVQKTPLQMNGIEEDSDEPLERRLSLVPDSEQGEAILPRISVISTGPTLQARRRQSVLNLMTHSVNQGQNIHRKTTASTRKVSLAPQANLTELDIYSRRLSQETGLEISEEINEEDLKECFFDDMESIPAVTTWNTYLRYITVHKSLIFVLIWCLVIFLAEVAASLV
T1 sequence (P13569 919-1480 limits assumed, stated change not applied): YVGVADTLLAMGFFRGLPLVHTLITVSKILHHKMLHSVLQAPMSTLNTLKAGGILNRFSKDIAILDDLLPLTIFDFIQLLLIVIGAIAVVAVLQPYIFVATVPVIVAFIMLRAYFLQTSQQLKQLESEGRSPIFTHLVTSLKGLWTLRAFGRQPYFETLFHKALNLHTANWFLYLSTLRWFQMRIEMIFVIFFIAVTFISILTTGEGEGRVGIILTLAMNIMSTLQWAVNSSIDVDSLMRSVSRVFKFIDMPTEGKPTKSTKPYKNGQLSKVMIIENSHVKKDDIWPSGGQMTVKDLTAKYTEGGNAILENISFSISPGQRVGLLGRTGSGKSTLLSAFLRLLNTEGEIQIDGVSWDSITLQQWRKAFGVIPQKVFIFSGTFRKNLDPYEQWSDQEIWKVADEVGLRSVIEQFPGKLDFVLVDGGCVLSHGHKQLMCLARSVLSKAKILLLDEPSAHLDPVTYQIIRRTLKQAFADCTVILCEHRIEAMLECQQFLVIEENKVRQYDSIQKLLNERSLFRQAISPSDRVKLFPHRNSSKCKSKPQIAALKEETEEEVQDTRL

As a reminder, the EC50 is the concentration at which the effect is half-maximal. Read a high EC50 as weaker potency. Take `C[C@]1(C(=O)N[C@@H]2C[C@H]([C@H]3CC[C@H](C(=O)Nc4ccccc4O)CC3)Oc3cc(OC(F)(F)F)ccc32)COc2cc3c(cc21)OC(F)(F)O3` [Example 262, (7R)-2,2-difluoro-N-[(2R,4R)-2-{trans-4-[(2-hydroxyphenyl)carbamoyl]cyclohexyl}-7-(trifluoromethoxy)-3,4-dihydro-2H-1-benzopyran-4-yl]-7-methyl-6,7-dihydro-2H-furo[2,3-f][1,3]benzodioxole-7-carboxamide]: the EC50 was found to be 90 nM and the “Maximum % activity (%)” value turned out to be 184%.

Consider `C[C@]1(C(=O)N[C@@H]2C[C@H]([C@H]3CC[C@H](C(=O)N(CCO)Cc4ccccc4)CC3)Oc3cc(OC(F)(F)F)ccc32)COc2cc3c(cc21)OC(F)(F)O3` [Example 264, (7R)—N-[(2R,4R)-2-{trans-4-[benzyl(2-hydroxyethyl)carbamoyl]cyclohexyl}-7-(trifluoromethoxy)-3,4-dihydro-2H-1-benzopyran-4-yl]-2,2-difluoro-7-methyl-6,7-dihydro-2H-furo[2,3-f][1,3]benzodioxole-7-carboxamide], for which the midpoint of the response, the EC50, lay at 60 nM and the “Maximum % activity (%)” value amounted to 186%.

With `C[C@]1(C(=O)N[C@@H]2C[C@H]([C@H]3CC[C@H](C(=O)N4CCC(O)CC4)CC3)Oc3cc(OC(F)(F)F)ccc32)COc2cc3c(cc21)OC(F)(F)O3` [Example 265, (7R)-2,2-difluoro-N-[(2R,4R)-2-[trans-4-(4-hydroxypiperidine-1-carbonyl)cyclohexyl]-7-(trifluoromethoxy)-3,4-dihydro-2H-1-benzopyran-4-yl]-7-methyl-6,7-dihydro-2H-furo[2,3-f][1,3]benzodioxole-7-carboxamide], the EC50 worked out at 80 nM and the “Maximum % activity (%)” value was found to be 173%.

As for `C[C@]1(C(=O)N[C@@H]2C[C@H]([C@H]3CC[C@H](C(=O)N4CCN(CCO)CC4)CC3)Oc3cc(OC(F)(F)F)ccc32)COc2cc3c(cc21)OC(F)(F)O3` [Example 266, (7R)-2,2-difluoro-N-[(2R,4R)-2-{trans-4-[4-(2-hydroxyethyl)piperazine-1-carbonyl]cyclohexyl}-7-(trifluoromethoxy)-3,4-dihydro-2H-1-benzopyran-4-yl]-7-methyl-6,7-dihydro-2H-furo[2,3-f][1,3]benzodioxole-7-carboxamide], the EC50 was 110 nM and the “Maximum % activity (%)” value is on record as 160%.

Take `CC(C)(O)CNC(=O)[C@H]1CC[C@H]([C@H]2C[C@@H](NC(=O)[C@@]3(C)COc4cc5c(cc43)OC(F)(F)O5)c3ccc(OC(F)(F)F)cc3O2)CC1` [Example 267, (7R)-2,2-difluoro-N-[(2R,4R)-2-{trans-4-[(2-hydroxy-2-methylpropyl)carbamoyl]cyclohexyl}-7-(trifluoromethoxy)-3,4-dihydro-2H-1-benzopyran-4-yl]-7-methyl-6,7-dihydro-2H-furo[2,3-f][1,3]benzodioxole-7-carboxamide]: a half-maximal response (EC50) required 90 nM and the “Maximum % activity (%)” value came out at 166%.

Regarding `CC(C)(CO)NC(=O)[C@H]1CC[C@H]([C@H]2C[C@@H](NC(=O)[C@@]3(C)COc4cc5c(cc43)OC(F)(F)O5)c3ccc(OC(F)(F)F)cc3O2)CC1` [Example 268, (7R)-2,2-difluoro-N-[(2R,4R)-2-{trans-4-[(1-hydroxy-2-methylpropan-2-yl)carbamoyl]cyclohexyl}-7-(trifluoromethoxy)-3,4-dihydro-2H-1-benzopyran-4-yl]-7-methyl-6,7-dihydro-2H-furo[2,3-f][1,3]benzodioxole-7-carboxamide], it took 120 nM to reach a half-maximal effect (EC50) and the “Maximum % activity (%)” value is 186%.

Regarding `C[C@]1(C(=O)N[C@@H]2C[C@H]([C@H]3CC[C@H](C(=O)NC(CO)c4ccccc4)CC3)Oc3cc(OC(F)(F)F)ccc32)COc2cc3c(cc21)OC(F)(F)O3` (stereo partly drawn) [Example 269, (7R)-2,2-difluoro-N-[(2R,4R)-2-{trans-4-[(2-hydroxy-1-phenylethyl)carbamoyl]cyclohexyl}-7-(trifluoromethoxy)-3,4-dihydro-2H-1-benzopyran-4-yl]-7-methyl-6,7-dihydro-2H-furo[2,3-f][1,3]benzodioxole-7-carboxamide], the EC50 amounted to 50 nM and the “Maximum % activity (%)” value is 192%.

As to `C[C@]1(C(=O)N[C@@H]2C[C@H]([C@H]3CC[C@H](C(=O)N4CCC(F)(F)CC4)CC3)Oc3cc(OC(F)(F)F)ccc32)COc2cc3c(cc21)OC(F)(F)O3` [Example 270, (7R)—N-[(2R,4R)-2-[trans-4-(4,4-difluoropiperidine-1-carbonyl)cyclohexyl]-7-(trifluoromethoxy)-3,4-dihydro-2H-1-benzopyran-4-yl]-2,2-difluoro-7-methyl-6,7-dihydro-2H-furo[2,3-f][1,3]benzodioxole-7-carboxamide], a half-maximal effect (EC50) was put at 180 nM and the “Maximum % activity (%)” value stood at 229%.

Consider `C[C@]1(C(=O)N[C@@H]2C[C@H]([C@H]3CC[C@H](C(=O)N4CCOCC4)CC3)Oc3cc(OC(F)(F)F)ccc32)COc2cc3c(cc21)OC(F)(F)O3` [Example 271, (7R)-2,2-difluoro-7-methyl-N-[(2R,4R)-2-[trans-4-(morpholine-4-carbonyl)cyclohexyl]-7-(trifluoromethoxy)-3,4-dihydro-2H-1-benzopyran-4-yl]-6,7-dihydro-2H-furo[2,3-f][1,3]benzodioxole-7-carboxamide], for which the EC50 is 60 nM and the “Maximum % activity (%)” value was 172%.

Turning to `COc1ccc2c(c1)O[C@@H](COC[C@H](O)CO)C[C@H]2NC(=O)[C@@]1(C)COc2cc3c(cc21)OC(F)(F)O3` [Example 274, (7R)—N-[(2R,4R)-2-{[(2R)-2,3-dihydroxypropoxy]methyl}-7-methoxy-3,4-dihydro-2H-1-benzopyran-4-yl]-2,2-difluoro-7-methyl-6,7-dihydro-2H-furo[2,3-f][1,3]benzodioxole-7-carboxamide], the EC50 stood at 850 nM and the “Maximum % activity (%)” value is on record as 99%.

Regarding `COc1ccc2c(c1)O[C@H](COC[C@H](O)CO)C[C@@H]2NC(=O)[C@@]1(C)COc2cc3c(cc21)OC(F)(F)O3` [Example 275, (7R)—N-[(2S,4S)-2-{[(2R)-2,3-dihydroxypropoxy]methyl}-7-methoxy-3,4-dihydro-2H-1-benzopyran-4-yl]-2,2-difluoro-7-methyl-6,7-dihydro-2H-furo[2,3-f][1,3]benzodioxole-7-carboxamide], the EC50 was above 20000 nM and the “Maximum % activity (%)” value was 7%.

With `COc1ccc2c(c1)O[C@@H](COCc1ccccc1)C[C@H]2NC(=O)[C@@]1(C)COc2cc3c(cc21)OC(F)(F)O3` [Example 276, (7R)—N-{(2R,4R)-2-[(benzyloxy)methyl]-7-methoxy-3,4-dihydro-2H-1-benzopyran-4-yl}-2,2-difluoro-7-methyl-6,7-dihydro-2H-furo[2,3-f][1,3]benzodioxole-7-carboxamide], the EC50 was determined as 700 nM and the “Maximum % activity (%)” value was 117%.

In the case of `COc1ccc2c(c1)O[C@@H](CO)C[C@H]2NC(=O)[C@@]1(C)COc2cc3c(cc21)OC(F)(F)O3` [Example 277, (7R)-2,2-difluoro-N-[(2R,4R)-2-(hydroxymethyl)-7-methoxy-3,4-dihydro-2H-1-benzopyran-4-yl]-7-methyl-6,7-dihydro-2H-furo[2,3-f][1,3]benzodioxole-7-carboxamide], the EC50 was 660 nM and the “Maximum % activity (%)” value stood at 110%.

On to `COc1ccc2c(c1)O[C@H](COCc1ccccc1)C[C@@H]2NC(=O)[C@@]1(C)COc2cc3c(cc21)OC(F)(F)O3` [Example 278, (7R)—N-{(2S,4S)-2-[(benzyloxy)methyl]-7-methoxy-3,4-dihydro-2H-1-benzopyran-4-yl}-2,2-difluoro-7-methyl-6,7-dihydro-2H-furo[2,3-f][1,3]benzodioxole-7-carboxamide], for which the EC50 was determined as 1540 nM and the “Maximum % activity (%)” value is given as 86%.

In the case of `C[C@]1(C(=O)N[C@@H]2C[C@H](C3(C(=O)N(CCO)CCO)CC3)Oc3cc(OC(F)(F)F)ccc32)COc2cc3c(cc21)OC(F)(F)O3` [Example 279, (7R)—N-[(2R,4R)-2-{1-[bis(2-hydroxyethyl)carbamoyl]cyclopropyl}-7-(trifluoromethoxy)-3,4-dihydro-2H-1-benzopyran-4-yl]-2,2-difluoro-7-methyl-6,7-dihydro-2H-furo[2,3-f][1,3]benzodioxole-7-carboxamide], the midpoint of the response, the EC50, lay at 560 nM and the “Maximum % activity (%)” value turned out to be 119%.

As for `C[C@]1(C(=O)N[C@H]2C[C@@H](C3(C(=O)N(CCO)CCO)CC3)Oc3cc(OC(F)(F)F)ccc32)COc2cc3c(cc21)OC(F)(F)O3` [Example 280, (7R)—N-[(2S,4S)-2-{1-[bis(2-hydroxyethyl)carbamoyl]cyclopropyl}-7-(trifluoromethoxy)-3,4-dihydro-2H-1-benzopyran-4-yl]-2,2-difluoro-7-methyl-6,7-dihydro-2H-furo[2,3-f][1,3]benzodioxole-7-carboxamide], the EC50 is above 20000 nM and the “Maximum % activity (%)” value is given as 10%.

Regarding `COc1ccc2c(c1)O[C@@H](c1nnnn1Cc1ccccc1)C[C@H]2NC(=O)[C@@]1(C)COc2cc3c(cc21)OC(F)(F)O3` [Example 283, (7R)—N-[(2R,4R)-2-(1-benzyl-1H-tetrazol-5-yl)-7-methoxy-3,4-dihydro-2H-1-benzopyran-4-yl]-2,2-difluoro-7-methyl-6,7-dihydro-2H-furo[2,3-f][1,3]benzodioxole-7-carboxamide], the EC50 is 1760 nM and the “Maximum % activity (%)” value was 95%.

`COc1ccc2c(c1)O[C@H](Cn1ncccc1=O)C[C@@H]2NC(=O)[C@@]1(C)COc2cc3c(cc21)OC(F)(F)O3` [Example 284, (7R)-2,2-difluoro-N-{(2S,4S)-7-methoxy-2-[(6-oxopyridazin-1(6H)-yl)methyl]-3,4-dihydro-2H-1-benzopyran-4-yl}-7-methyl-6,7-dihydro-2H-furo[2,3-f][1,3]benzodioxole-7-carboxamide]: it took 3960 nM to reach a half-maximal effect (EC50) and the “Maximum % activity (%)” value is on record as 40%.

The values above are taken from patent US9840513B2 (AbbVie S.à.r.l., priority 2015, dated 2017).
